Assay results: PubChem BioAssay (NCI)
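Cultured in 96-well plates, cells were exposed to test compound for 48 hours across five concentrations. GI50 is the concentration that inhibits growth by half. Definition used: TGI = concentration required for complete inhibition of growth.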

Tests used:
Test in all cases: NCI tumour cell line growth inhibition, 48 h
NCI-H226 lung = test system: NCI-H226 lung
NCI-H460 lung = test system: NCI-H460 lung
NCI-H23 lung = test system: NCI-H23 lung
IGROV1 ovarian = test system: IGROV1 ovarian
SK-MEL-2 melanoma = test system: SK-MEL-2 melanoma
A549 NSCLC = test system: A549 NSCLC
DU-145 prostate = test system: DU-145 prostate
RXF 393 renal = test system: RXF 393 renal
U251 CNS = test system: U251 CNS
SF-539 CNS = test system: SF-539 CNS
SK-MEL-5 melanoma = test system: SK-MEL-5 melanoma
SF-268 CNS = test system: SF-268 CNS
MOLT-4 leukemia = test system: MOLT-4 leukemia
SF-295 CNS = test system: SF-295 CNS
786-0 renal = test system: 786-0 renal
NCI-H522 lung = test system: NCI-H522 lung
A498 renal = test system: A498 renal
OVCAR-8 ovarian = test system: OVCAR-8 ovarian
UACC-257 melanoma = test system: UACC-257 melanoma
ACHN renal = test system: ACHN renal
HT29 colon = test system: HT29 colon
SW-620 colon = test system: SW-620 colon
OVCAR-4 ovarian = test system: OVCAR-4 ovarian
TK-10 renal = test system: TK-10 renal
SNB-75 CNS = test system: SNB-75 CNS
SN12C renal = test system: SN12C renal
PC-3 prostate = test system: PC-3 prostate
HOP-92 NSCLC = test system: HOP-92 NSCLC
MDA-MB-435 = test system: MDA-MB-435
SR leukemia = test system: SR leukemia
SNB-19 CNS = test system: SNB-19 CNS
SK-OV-3 ovarian = test system: SK-OV-3 ovarian
K-562 leukemia = test system: K-562 leukemia
UO-31 renal = test system: UO-31 renal
T-47D breast = test system: T-47D breast
HOP-62 NSCLC = test system: HOP-62 NSCLC
COLO 205 colon = test system: COLO 205 colon
UACC-62 melanoma = test system: UACC-62 melanoma
CCRF-CEM leukemia = test system: CCRF-CEM leukemia
CAKI-1 renal = test system: CAKI-1 renal
OVCAR-5 ovarian = test system: OVCAR-5 ovarian
OVCAR-3 ovarian = test system: OVCAR-3 ovarian
HCC-2998 colon = test system: HCC-2998 colon
SK-MEL-28 melanoma = test system: SK-MEL-28 melanoma
BT-549 breast = test system: BT-549 breast
KM12 colon = test system: KM12 colon
RPMI-8226 leukemia = test system: RPMI-8226 leukemia
M14 melanoma = test system: M14 melanoma
MALME-3M melanoma = test system: MALME-3M melanoma
MCF7 breast = test system: MCF7 breast
MDA-MB-468 breast = test system: MDA-MB-468 breast
MDA-MB-231 breast = test system: MDA-MB-231 breast
HCT-116 colon = test system: HCT-116 colon
EKVX NSCLC = test system: EKVX NSCLC
HCT-15 colon = test system: HCT-15 colon
HL-60(TB) leukemia = test system: HL-60(TB) leukemia
HS 578T breast = test system: HS 578T breast
LOX IMVI melanoma = test system: LOX IMVI melanoma

Cc1cc(C2(c3cc(C)c(OCC(O)CNc4c(C)n(C)n(-c5ccccc5)c4=O)cc3C(C)C)OC(=O)c3ccccc32)c(C(C)C)cc1OCC(O)CNc1c(C)n(C)n(-c2ccccc2)c1=O (stereo unspecified)
GI50 (NCI-H226 lung): 15.7 µM
TGI (NCI-H226 lung): > 100 µM
GI50 (NCI-H460 lung): 15.6 µM
TGI (NCI-H460 lung): 43.4 µM
GI50 (NCI-H23 lung): 23.5 µM
TGI (NCI-H23 lung): > 100 µM
GI50 (IGROV1 ovarian): 29 µM
TGI (IGROV1 ovarian): > 100 µM
GI50 (SK-MEL-2 melanoma): 17.5 µM
TGI (SK-MEL-2 melanoma): 40.8 µM
GI50 (A549 NSCLC): 23.1 µM
TGI (A549 NSCLC): > 100 µM
GI50 (DU-145 prostate): 34 µM
TGI (DU-145 prostate): > 100 µM
GI50 (RXF 393 renal): 5.2 µM
TGI (RXF 393 renal): 38 µM
GI50 (U251 CNS): 25.9 µM
TGI (U251 CNS): 99.6 µM
GI50 (SF-539 CNS): 18.6 µM
TGI (SF-539 CNS): 52.9 µM
GI50 (SK-MEL-5 melanoma): 13.2 µM
TGI (SK-MEL-5 melanoma): 26.7 µM
GI50 (SF-268 CNS): 18.1 µM
TGI (SF-268 CNS): > 100 µM
GI50 (MOLT-4 leukemia): 6.78 µM
TGI (MOLT-4 leukemia): > 100 µM
GI50 (SF-295 CNS): 11.1 µM
TGI (SF-295 CNS): 32 µM
GI50 (786-0 renal): 19.2 µM
TGI (786-0 renal): 76.5 µM
GI50 (NCI-H522 lung): 26.9 µM
TGI (NCI-H522 lung): 94.1 µM
GI50 (A498 renal): 29.1 µM
TGI (A498 renal): > 100 µM
GI50 (OVCAR-8 ovarian): 27 µM
TGI (OVCAR-8 ovarian): > 100 µM
GI50 (UACC-257 melanoma): 24.1 µM
TGI (UACC-257 melanoma): > 100 µM
GI50 (ACHN renal): 23.6 µM
TGI (ACHN renal): > 100 µM
GI50 (HT29 colon): 26.7 µM
TGI (HT29 colon): > 100 µM
GI50 (SW-620 colon): 28.2 µM
TGI (SW-620 colon): > 100 µM
GI50 (OVCAR-4 ovarian): 27.2 µM
TGI (OVCAR-4 ovarian): > 100 µM
GI50 (TK-10 renal): 49.3 µM
TGI (TK-10 renal): > 100 µM
GI50 (SNB-75 CNS): 20.3 µM
TGI (SNB-75 CNS): > 100 µM
GI50 (SN12C renal): 26.1 µM
TGI (SN12C renal): > 100 µM
GI50 (PC-3 prostate): 5.72 µM
TGI (PC-3 prostate): > 100 µM
GI50 (HOP-92 NSCLC): 4.49 µM
TGI (HOP-92 NSCLC): 49.8 µM
GI50 (MDA-MB-435): 14.7 µM
TGI (MDA-MB-435): 38.3 µM
GI50 (SR leukemia): 20.9 µM
TGI (SR leukemia): > 100 µM
GI50 (SNB-19 CNS): 23.5 µM
TGI (SNB-19 CNS): > 100 µM
GI50 (SK-OV-3 ovarian): 49.2 µM
TGI (SK-OV-3 ovarian): > 100 µM
GI50 (K-562 leukemia): 14.4 µM
TGI (K-562 leukemia): > 100 µM
GI50 (UO-31 renal): 19.9 µM
TGI (UO-31 renal): > 100 µM
GI50 (T-47D breast): 18.5 µM
TGI (T-47D breast): > 100 µM
GI50 (HOP-62 NSCLC): 36.5 µM
TGI (HOP-62 NSCLC): > 100 µM
GI50 (COLO 205 colon): 17.9 µM
TGI (COLO 205 colon): 41.8 µM
GI50 (UACC-62 melanoma): 9.74 µM
TGI (UACC-62 melanoma): 24.4 µM
GI50 (CCRF-CEM leukemia): 15.5 µM
TGI (CCRF-CEM leukemia): > 100 µM
GI50 (CAKI-1 renal): 4.11 µM
TGI (CAKI-1 renal): > 100 µM
GI50 (OVCAR-5 ovarian): 17.7 µM
TGI (OVCAR-5 ovarian): 56.3 µM
GI50 (OVCAR-3 ovarian): 19 µM
TGI (OVCAR-3 ovarian): 92.6 µM
GI50 (HCC-2998 colon): 17.1 µM
TGI (HCC-2998 colon): 49.6 µM
GI50 (SK-MEL-28 melanoma): 23.2 µM
TGI (SK-MEL-28 melanoma): 92.9 µM
GI50 (BT-549 breast): 23.3 µM
TGI (BT-549 breast): > 100 µM
GI50 (KM12 colon): 25.8 µM
TGI (KM12 colon): > 100 µM
GI50 (RPMI-8226 leukemia): 13.9 µM
TGI (RPMI-8226 leukemia): 84.6 µM
GI50 (M14 melanoma): 17.8 µM
TGI (M14 melanoma): 44.7 µM
GI50 (MALME-3M melanoma): 20 µM
TGI (MALME-3M melanoma): 52.9 µM
GI50 (MCF7 breast): 14 µM
TGI (MCF7 breast): 39.6 µM
GI50 (MDA-MB-468 breast): 12.1 µM
TGI (MDA-MB-468 breast): 44.5 µM
GI50 (MDA-MB-231 breast): 10.1 µM
TGI (MDA-MB-231 breast): 27.2 µM
GI50 (HCT-116 colon): 16.9 µM
TGI (HCT-116 colon): 46.8 µM
GI50 (EKVX NSCLC): 14.7 µM
TGI (EKVX NSCLC): > 100 µM
GI50 (HCT-15 colon): 17.1 µM
TGI (HCT-15 colon): 67.9 µM
GI50 (HL-60(TB) leukemia): 14.2 µM
TGI (HL-60(TB) leukemia): 79.7 µM
GI50 (HS 578T breast): 14.2 µM
TGI (HS 578T breast): > 100 µM
GI50 (LOX IMVI melanoma): 14.4 µM
TGI (LOX IMVI melanoma): 30.3 µM
